The values below come from publication PMC8178536 (Journal of Ethnopharmacology, 2021).

Read-outs that look alike come from different tables or passages of the source.

Test [1] concerns the target ACE2-RBD interaction (human ACE2 / SARS-CoV-2 S protein RBD) (Severe acute respiratory syndrome coronavirus 2, UniProt P0DTC2). Put plainly: biochemical. Type of test: binding, human; SARS-CoV-2.
For the next test, the target named is SARS-CoV-2 RBD (Severe acute respiratory syndrome coronavirus 2, UniProt P0DTC2). Briefly: biochemical. Type of test: binding.
The test system of test [2] is SARS-CoV-2 S protein-pseudoviruses, 293T-ACE2 cells. Briefly: microbe, parasite or virus in culture. Type of test: cell-based.
The target in another test is ACE2 (Homo sapiens, UniProt Q9BYF1). Type of test: binding. The conditions noted are these: SPR, two-fold serial dilutions.
Sequence of ACE2 (Q9BYF1 18-740): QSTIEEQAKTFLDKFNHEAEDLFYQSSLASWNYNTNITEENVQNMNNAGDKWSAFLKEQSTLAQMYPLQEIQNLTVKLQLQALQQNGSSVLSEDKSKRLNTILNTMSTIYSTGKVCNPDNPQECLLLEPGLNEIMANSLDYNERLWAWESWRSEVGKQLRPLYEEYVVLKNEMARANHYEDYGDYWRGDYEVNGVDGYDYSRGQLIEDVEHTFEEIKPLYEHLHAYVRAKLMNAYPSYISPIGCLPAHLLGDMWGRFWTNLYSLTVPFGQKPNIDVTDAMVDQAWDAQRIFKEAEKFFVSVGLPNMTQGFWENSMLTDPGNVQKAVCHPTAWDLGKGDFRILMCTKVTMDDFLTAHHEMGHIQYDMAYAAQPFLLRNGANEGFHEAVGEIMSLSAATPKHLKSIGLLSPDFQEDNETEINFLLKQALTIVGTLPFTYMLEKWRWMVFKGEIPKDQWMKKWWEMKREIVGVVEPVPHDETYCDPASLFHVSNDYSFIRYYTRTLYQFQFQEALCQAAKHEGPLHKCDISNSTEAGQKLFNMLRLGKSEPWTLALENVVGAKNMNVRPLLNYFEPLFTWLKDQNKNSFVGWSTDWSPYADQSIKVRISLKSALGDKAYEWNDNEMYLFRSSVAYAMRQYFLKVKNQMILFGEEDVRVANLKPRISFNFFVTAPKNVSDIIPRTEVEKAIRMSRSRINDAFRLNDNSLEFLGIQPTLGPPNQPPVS
For test [3], the system named is SARS-CoV-2 S protein-pseudoviruses, Calu-3 cells. Type of test: cell-based.
Where [4] appears, read: Severe acute respiratory syndrome coronavirus 2, 293T/ACE2, read-out: IC50, infectivity of S protein-pseudoviruses to 293T-ACE2 cells.

Consider `COc1ccc2nc(C(=O)O)cc(O)c2c1` [Compound 3, 4-hydroxy-6-methoxyquinoline-2-carboxylic acid], for which the values for the IC50 in test [1] and in test [2] (setting [4]) were 150 nM and 750 nM, respectively. Also, at SARS-CoV-2 RBD, the Kd (commonly a measure of binding affinity in units of concentration) is 5370 nM.

`O=C(O)c1cc(O)c2ccccc2n1` [Compound 2, 4-hydroxyquinoline-2-carboxylic acid]: the IC50 (usually the point on the concentration scale where inhibition reaches its midpoint) in test [1] turned out to be 70 nM; in test [2] (setting [4]) it was 440 nM. Further, the Kd on SARS-CoV-2 RBD is 5280 nM. The “binding to immobilized ACE2” value on ACE2 is recorded as “low or no binding”. Besides, in test [3], the “infectivity of SARS-CoV-2 S protein-pseudoviruses to Calu-3 cells” value is given as “abolished the infectivity”.

With `O=C(O)c1cc(O)c2cc(O)ccc2n1` [Compound 1, 4,6-dihydroxyquinoline-2-carboxylic acid], the half-inhibitory concentration (IC50) in test [1] came out at 580 nM; in test [2] (setting [4]) it was 1090 nM. In addition, binding at SARS-CoV-2 RBD was characterised by a dissociation constant (Kd) of 600 nM.

Consider soluble recombinant human ACE2, for which the IC50 in test [2] (read-out: IC50, entry of S protein-pseudoviruses into 293T-ACE2 cells) stood at 69.6 nM.
